From US7265120B2, “Pyrazine derivatives and pharmaceutical use thereof” (Astellas Pharma Inc., priority 2004, dated 2007)

melting point | Compound
249 to 251 °C | CC(C)n1nc(-c2nc(S(C)(=O)=O)c(N)nc2-c2ccccc2)ccc1=O [Example 55, 6-[5-amino-6-(methylsulfonyl)-3-phenyl-2-pyrazinyl]-2-isopropyl-3(2H)-pyridazinone]
148 to 150 °C | CCn1nc(-c2ncc(NCc3ccc(OC)cc3)nc2-c2ccccc2)ccc1=O [Example 58, 2-ethyl-6-{5-[(4-methoxybenzyl)amino]-3-phenyl-2-pyrazinyl}-3(2H)-pyridazinone]
227 to 229 °C | CCn1nc(-c2ncc(N)nc2-c2ccccc2)ccc1=O [Example 59, 6-(5-amino-3-phenyl-2-pyrazinyl)-2-ethyl-3(2H)-pyridazinone]
220 to 222 °C | Cn1nc(-c2nc(Br)c(N)nc2-c2ccccc2)ccc1=O [Example 60, 6-(5-amino-6-bromo-3-phenyl-2-pyrazinyl)-2-methyl-3(2H)-pyridazinone]
204 to 205.5 °C | CSc1nc(-c2ccc(=O)n(C)n2)c(-c2ccccc2)nc1N [Example 61, 6-[5-amino-6-(methylthio)-3-phenyl-2-pyrazinyl]-2-methyl-3(2H)-pyridazinone]
209 to 210.5 °C | Cn1nc(-c2nc([S+](C)[O-])c(N)nc2-c2ccccc2)ccc1=O (centres unmarked) [Example 62, 6-[5-amino-6-(methylsulfinyl)-3-phenyl-2-pyrazinyl]-2-methyl-3(2H)-pyridazinone]
231 to 233 °C | Cn1nc(-c2nc(S(C)(=O)=O)c(N)nc2-c2ccccc2)ccc1=O [Example 62, 6-[5-amino-6-(methylsulfonyl)-3-phenyl-2-pyrazinyl]-2-methyl-3(2H)-pyridazinone]
190 to 194 °C | CC(C)n1nc(-c2ncc(N=S(C)C)nc2-c2ccccc2)ccc1=O [Example 65, 6-{5-[(dimethyl-lambda˜4˜-sulfanylidene)amino]-3-phenyl-2-pyrazinyl}-2-isopropyl-3(2H)-pyridazinone]
164 to 166 °C | CC(C)n1nc(-c2nc(Br)c(N=O)nc2-c2ccccc2)ccc1=O [Example 67, 6-(6-bromo-5-nitroso-3-phenyl-2-pyrazinyl)-2-isopropyl-3(2H)-pyridazinone]
198 to 200 °C | CC(C)n1nc(-c2nc(O)cnc2-c2ccccc2)ccc1=O [Example 68, 6-(6-hydroxy-3-phenyl-2-pyrazinyl)-2-isopropyl-3(2H)-pyridazinone]
217 °C (dec.) | C#Cc1nc(-c2ccc(=O)n(C(C)C)n2)c(-c2ccccc2)nc1N [Example 76, 6-(5-amino-6-ethynyl-3-phenyl-2-pyrazinyl)-2-isopropyl-3(2H)-pyridazinone]
181 to 183 °C | CC(C)n1nc(-c2nc(-c3cccs3)c(N)nc2-c2ccccc2)ccc1=O [Example 80, 6-[5-amino-3-phenyl-6-(2-thienyl)-2-pyrazinyl]-2-isopropyl-3(2H)-pyridazinone]
233 to 235 °C | CC(C)n1nc(-c2nc(-c3ccoc3)c(N)nc2-c2ccccc2)ccc1=O [Example 81, 6-[5-amino-6-(3-furyl)-3-phenyl-2-pyrazinyl]-2-isopropyl-3(2H)-pyridazinone]
177 °C (dec.) | Cn1nc(-c2nc(-c3cccs3)c(N)nc2-c2ccccc2)ccc1=O [Example 86, 6-[5-amino-3-phenyl-6-(2-thienyl)-2-pyrazinyl]-2-methyl-3(2H)-pyridazinone]
> 250 °C | CC(C)n1nc(-c2nc(-c3cn[nH]c3)c(N)nc2-c2ccccc2)ccc1=O [Example 90, 6-[5-amino-3-phenyl-6-(1H-pyrazol-4-yl)-2-pyrazinyl]-2-isopropyl-3(2H)-pyridazinone]

More lines, now with the values behind:

Compound | melting point
CCn1nc(-c2nc(C(=O)O)c(NCc3ccc(OC)cc3)nc2-c2ccccc2)ccc1=O [Example 57, 6-(1-ethyl-6-oxo-1,6-dihydro-3-pyridazinyl)-3-[(4-methoxybenzyl)amino]-5-phenyl-2-pyrazinecarboxylic acid] | > 250 °C
COCOCC#Cc1nc(-c2ccc(=O)n(C(C)C)n2)c(-c2ccccc2)nc1N [Example 71, 6-{5-amino-6-[3-(methoxymethoxy)-1-propyn-1-yl]-3-phenyl-2-pyrazinyl}-2-isopropyl-3(2H)-pyridazinone] | 133 to 135 °C
CC(C)n1nc(-c2nc(C#CC3(O)CCCCC3)c(N)nc2-c2ccccc2)ccc1=O [Example 73, 6-{5-amino-6-[(1-hydroxycyclohexyl)ethynyl]-3-phenyl-2-pyrazinyl}-2-isopropyl-3(2H)-pyridazinone] | 238 to 240 °C
CC(C)n1nc(-c2nc(C#Cc3ccccn3)c(N)nc2-c2ccccc2)ccc1=O [Example 74, 6-[5-amino-3-phenyl-6-(2-pyridylethynyl)-2-pyrazinyl]-2-isopropyl-3(2H)-pyridazinone] | 245.5 to 247 °C
Cn1nc(-c2nc(C#Cc3ccccc3)c(N)nc2-c2ccccc2)ccc1=O [Example 77, 6-[5-amino-3-phenyl-6-(phenylethynyl)-2-pyrazinyl]-2-methyl-3(2H)-pyridazinone] | 234 to 236 °C
CC(C)n1nc(-c2nc(-c3ccccc3)c(N)nc2-c2ccccc2)ccc1=O [Example 78, 6-(5-amino-3,6-diphenyl-2-pyrazinyl)-2-isopropyl-3(2H)-pyridazinone] | 225 to 226 °C
CC(C)n1nc(-c2nc(-c3ccsc3)c(N)nc2-c2ccccc2)ccc1=O [Example 79, 6-[5-amino-3-phenyl-6-(3-thienyl)-2-pyrazinyl]-2-isopropyl-3(2H)-pyridazinone] | 228 to 230 °C
CC(C)n1nc(-c2nc(-c3ccncc3)c(N)nc2-c2ccccc2)ccc1=O [Example 82, 6-[5-amino-3-phenyl-6-(4-pyridyl)-2-pyrazinyl]-2-isopropyl-3(2H)-pyridazinone] | 222 to 224 °C
COc1ccc(-c2nc(-c3ccc(=O)n(C(C)C)n3)c(-c3ccccc3)nc2N)cn1 [Example 83, 6-[5-amino-6-(6-methoxy-3-pyridyl)-3-phenyl-2-pyrazinyl]-2-isopropyl-3(2H)-pyridazinone] | 230 to 232.5 °C
CC(C)n1nc(-c2nc(-c3cccnc3)c(N)nc2-c2ccccc2)ccc1=O [Example 84, 6-[5-amino-3-phenyl-6-(3-pyridyl)-2-pyrazinyl]-2-isopropyl-3(2H)-pyridazinone] | 224 to 225.5 °C
Cn1nc(-c2nc(-c3ccccc3)c(N)nc2-c2ccccc2)ccc1=O [Example 85, 6-(5-amino-3,6-diphenyl-2-pyrazinyl)-2-methyl-3(2H)-pyridazinone] | 220 to 221.5 °C
CC(C)n1nc(-c2nc(/C=C/c3ccccc3)c(N)nc2-c2ccccc2)ccc1=O [Example 87, 6-{5-amino-3-phenyl-6-[(E)-2-phenylvinyl]-2-pyrazinyl}-2-isopropyl-3(2H)-pyridazinone] | 244.5 to 245 °C
CC(C)n1nc(-c2nc(-c3ccco3)c(N)nc2-c2ccccc2)ccc1=O [Example 88, 6-[5-amino-6-(2-furyl)-3-phenyl-2-pyrazinyl]-2-isopropyl-3(2H)-pyridazinone] | 211 to 213 °C
Cn1nc(-c2nc(-c3ccco3)c(N)nc2-c2ccccc2)ccc1=O [Example 89, 6-[5-amino-6-(2-furyl)-3-phenyl-2-pyrazinyl]-2-methyl-3(2H)-pyridazinone] | 186 to 188 °C
